These results are taken from patent US5679684A, “Hydroxyalkylammonium-pyrimidines and nucleoside derivatives, useful as inhibitors of inflammatory cytokines” (Macronex, Inc., priority 1995, dated 1997).

Series [1] is described as follows: Endotoxin testing (kinetic chromogenic procedure). Also on record: key: NE: No effect; NT: Not tested; INHIB: Inhibition; STIM: Stimulation; IC20: 20% Inhibitory Concentration; EC50: 50% Effective Concentration; TC: Tolerated Concentration. The method, then:
All batches of media and reagents are tested to ensure they are free of endotoxins before they are used. This laboratory uses a kinetic chromogenic procedure (Kinetic QCL; Whittaker Bioproducts) for the determination of endotoxin, performed using the Thermomax Plate reader from Molecular Devices. The plate reader incorporates dedicated software for the computer analysis of all data. Samples are tested following the manufacturer's instructions, at 3 different concentrations, in triplicate. Reference Standard Endotoxin (United States Pharmacopeia) obtained at a concentration of 10,000 endotoxin units/ml, is used to generate a standard curve to determine the actual concentration of endotoxin in the samples (sensitivity =/>0.005 endotoxin units/ml).

The test system of series [2] is human peripheral blood mononuclear cells (PBMC). In words: PBMC proliferation to mitogens (PHA). Format: cell-based. Also on record: key: NE: No effect; NT: Not tested; INHIB: Inhibition; STIM: Stimulation; IC20: 20% Inhibitory Concentration; EC50: 50% Effective Concentration; TC: Tolerated Concentration. Here is the method: (§1) Human Peripheral Blood Mononuclear Cell (PBMC) Isolation:
(§2) Venous blood is obtained from healthy volunteers and mixed with an equal volume of sterile isotonic saline/10 mM HEPES and placed into 50 ml conical polypropylene tubes in 30 ml aliquots. Each aliquot of diluted blood is underlaid with 20-25 ml of sterile Lymphocyte Separation Medium (LSM; Organon-Technika, Durham, N.C.). The tubes are centrifuged at 400 g for 40 minutes at room temperature. The mononuclear cells at the interface are removed and washed twice in sterile isotonic saline/10 mM HEPES followed by a wash in Hank's Balanced Salt Solution (HBSS) or RPMI without serum, depending on their intended use. Cell concentrations for each donor are determined by counting in a haematology and analyser (Serono-Baker).
PBMC Proliferation to Mitogens (PHA):
PBMC are adjusted to 4×10^6 /ml in complete medium. To each well of a 96 well flat bottom tissue culture plate (Falcon 3072) is added 50 μl of cell suspension. Test materials (diluted in complete medium to 2× the desired final concentration) are added in 100 μl volumes to each well. […] The contents of the wells are harvested onto glass fibre filters using a multiple automated sample harvester (Tomtec), and the incorporated […] determined by liquid scintillation spectrophotometry and represented an cpm (counts per minute) incorporated per well.

The test system is the same in series [3]. In words: Two-way mixed lymphocyte reaction (MLR). Also on record: key: NE: No effect; NT: Not tested; INHIB: Inhibition; STIM: Stimulation; IC20: 20% Inhibitory Concentration; EC50: 50% Effective Concentration; TC: Tolerated Concentration. Format: cell-based. Here is the method:
as §1, §2
Two-Way Mixed Lymphocyte Reaction (MLR):
PBMC are prepared as described for the mitogen assays, but resuspended to 2×10^6 cells/ml in complete medium. Fifty μl of cell suspension from two different individuals is then added to each well of a 96-well flat bottom tissue culture plate. An additional 100 μl of complete medium, dexamethasone or test compounds are then added to each well, the plates are incubated for 6 days at 37° C., and then pulsed with ^3 H-thymidine and harvested as previously described.

For another series, the system named is GM-CSF. As to the kind of experiment: Monocyte release of GM-CSF. Also on record: key to EFFECT: NE: No effect; NT: Not tested; INHIB: Inhibition; STIM: Stimulation; IC20: 20% Inhibitory Concentration; EC50: 50% Effective Concentration; TC: Tolerated Concentration. Format: cell-based, human.
The next series concerns IL-1β. In words: Monocyte release of IL-1β. Format: cell-based, human. The conditions noted are these: IL1β. Also on record: key to EFFECT: NE: No effect; NT: Not tested; INHIB: Inhibition; STIM: Stimulation; IC20: 20% Inhibitory Concentration; EC50: 50% Effective Concentration; TC: Tolerated Concentration.
The test system of the next series is IL-6. In words: Monocyte release of IL-6. Also on record: key to EFFECT: NE: No effect; NT: Not tested; INHIB: Inhibition; STIM: Stimulation; IC20: 20% Inhibitory Concentration; EC50: 50% Effective Concentration; TC: Tolerated Concentration. In kind it is cell-based, human. To be noted: IL6.
In the next series the test system is IL-8. As to the kind of experiment: Monocyte release of IL-8. Also on record: key to EFFECT: NE: No effect; NT: Not tested; INHIB: Inhibition; STIM: Stimulation; IC20: 20% Inhibitory Concentration; EC50: 50% Effective Concentration; TC: Tolerated Concentration. In kind it is cell-based, human. To be noted: IL8.
The test system of series [4] is TNF-α. In words: Monocyte release of TNF-α. Also on record: key to EFFECT: NE: No effect; NT: Not tested; INHIB: Inhibition; STIM: Stimulation; IC20: 20% Inhibitory Concentration; EC50: 50% Effective Concentration; TC: Tolerated Concentration. The conditions noted are these: TNFα. In kind it is cell-based, human.
The subject of a further series is Tissue Factor. In words: Monocyte procoagulant activity (Tissue Factor). Format: cell-based, human. Also on record: key to EFFECT: NE: No effect; NT: Not tested; INHIB: Inhibition; STIM: Stimulation; IC20: 20% Inhibitory Concentration; EC50: 50% Effective Concentration; TC: Tolerated Concentration. The method, then: Monocyte Procoagulant Activity (Tissue Factor):
The adhered monocytes remaining on the 48-well tissue culture plates after removal of the supernatants above, are used to measure levels of Tissue Factor production. The cells are solubilized overnight at 4° C. in 10% Triton-X100 in PBS, diluted to 1% Triton-X100 with PBS then assayed by ELISA for Tissue Factor.

The subject of a further series is PGE2. In words: Monocyte release of PGE2. Format: cell-based, human. Also on record: key: NE: No effect; NT: Not tested; INHIB: Inhibition; STIM: Stimulation; IC20: 20% Inhibitory Concentration; EC50: 50% Effective Concentration; TC: Tolerated Concentration. The conditions noted are these: zymosan A stimulated. Here is the method: (§3) Monocyte Release of PGE2, LTB4, and PAF:
(§4) Monocytes isolated as described above, were washed and resuspended in RPM1 containing 5 mg/ml HSA at 2×10^6 cells/ml and added to wells of a 48-well plates. The cells were allowed to adhere for 2 hours then washed in HBSS-BSA-HEPES buffer. Test materials were added at four concentrations (175 μl) for 60 minutes; then the monocytes were stimulated by addition of […] zymosan A (175 μl of 2× desired final concentration added). Supernatant medium was collected from the wells after 90 minutes incubation and stored at -20° C. until assayed. Supernatants were assayed for PGE2, LTB4 or PAF using specific scintillation proximity assays (SPA).

In a further series the test system is LTB4. As to the kind of experiment: Monocyte release of LTB4. In kind it is cell-based, human. Also on record: key: NE: No effect; NT: Not tested; INHIB: Inhibition; STIM: Stimulation; IC20: 20% Inhibitory Concentration; EC50: 50% Effective Concentration; TC: Tolerated Concentration. The conditions noted are these: zymosan A stimulated. The method, then: as §3, §4

The test system of another series is PAF. In words: Monocyte release of PAF. In kind it is cell-based, human. Also on record: key: NE: No effect; NT: Not tested; INHIB: Inhibition; STIM: Stimulation; IC20: 20% Inhibitory Concentration; EC50: 50% Effective Concentration; TC: Tolerated Concentration. The conditions noted are these: zymosan A stimulated. The method, then:
as §3, §4

The test system of another series is superoxide anion. As to the kind of experiment: Monocyte superoxide anion (O2) release. In kind it is cell-based, human. Also on record: key to EFFECT: NE: No effect; NT: Not tested; INHIB: Inhibition; STIM: Stimulation; IC20: 20% Inhibitory Concentration; EC50: 50% Effective Concentration; TC: Tolerated Concentration. Here is the method: Monocyte Superoxide Anion (O2) Release:
Monocytes are prepared as described above and resuspended to 5×10^6 /ml in HBSS containing 10 Mm HEPES, 2 g/l glucose, 0.1% BSA, Ph 7.2. To each well of a 96-well flat bottom, tissue culture plate is added 100 μl of cell suspension and 100 μl of buffer or test materials. Samples are run in quadruplicate. The plate is incubated for 60 min. at 37° C. followed by the addition of 50 μl of buffer containing cytochrome C (5 mg/ml; type VI, horse heart, Sigma) and bovine liver catalase (1500 U/ml; Sigma) in the presence of zymosan A ([…]; 750 μg/ml; Sigma). The plate is incubated an additional 120 minutes at 37° C. during which the absorbance at 550 nm is monitored using a microplate reader incorporating dedicated software for kinetic analysis (Molecular Devices; Menlo Park, Calif.).

Another series deals with monocytes. As to the kind of experiment: Inhibition of monocyte chemotaxis. In kind it is cell-based, human. Also on record: key to EFFECT: NE: No effect; NT: Not tested; INHIB: Inhibition; STIM: Stimulation; IC20: 20% Inhibitory Concentration; EC50: 50% Effective Concentration; TC: Tolerated Concentration. To be noted: chemoattractant FMLP. Here is the method:
Inhibition of Monocyte Chemotaxis:
Monocytes are prepared as previously described, and resuspended at 5×10^6 cells/ml in HBSS, 0.1% BSA (HBSS-BSA). Fluorophore labeling of the cells is carried out by adding calcein-AM to the above cells at a final concentration of 2 μM. Following a 30 minute incubation at 37° C. in humidified 5% CO2, the labeled monocytes are washed twice and incubated in a range of dilutions of the test materials for 60 minutes at 37° C. in humidified 5% CO2. The pre-treated, calcein-AM loaded cells are then added in triplicate to the wells of the top compartment of a NeuroProbe (Cabin, John, M.D.) 96-well chemotaxis chamber (2×10^5 cells/well) and permitted to migrate through a 10 μm thick bonded polycarbonate membrane (5 μm porosity; NeuroProbe Inc; Cabin, John, M.D.) towards the wells of the lower compartment containing the chemoattractant (FMLP) at 5×10^-9 M. After a 90 minute incubation at 37° C. in a humidified chamber, the wells of the upper chambers are aspirated, the monocyte-associated membrane removed, non-migrating cells wiped off and the filters permitted to air dry to 15 minutes. The number of cells migrating through the membranes are quantified by measuring the fluorescent intensity of the migrating cells in a fluorescent microplate reader (CytoFluor 2300, Millipore Corp., Bedford, Mass.)

A further series in a line: MTS. In kind it is cell-based. Also on record: key to EFFECT: NE: No effect; NT: Not tested; INHIB: Inhibition; STIM: Stimulation; IC20: 20% Inhibitory Concentration; EC50: 50% Effective Concentration; TC: Tolerated Concentration.
Another series can be described thus: LDH. In kind it is cell-based. Also on record: key to EFFECT: NE: No effect; NT: Not tested; INHIB: Inhibition; STIM: Stimulation; IC20: 20% Inhibitory Concentration; EC50: 50% Effective Concentration; TC: Tolerated Concentration.
The test system of another series is latent HIV-1. The conditions noted are these: monocytoid (U1) cell line; cited from earlier work.
Series [5] concerns TNF-α. The conditions noted are these: associated with HIV-1 inhibition; cited from earlier work.
The next series has as its system HIV-1. To be noted: advanced HIV-1 infection and AIDS; cited from earlier work.

For `CCCCCCCCCCCCCCCC(=O)OCC[N+](C)(C)CCOCn1cc(C)c(=O)[nH]c1=O` [Example 6, N,N-Dimethyl-N-2-(hexadecanoyloxy)ethyl-N-[N^1-(5-methyl-2,4-dioxopyrimidinyl)methoxyethyl]ammonium iodide], the EFFECT result was “NE” in series [1]; “NE” in series [2]; “NE” in [3]; “INHIB” in the series on GM-CSF; “INHIB” with IL-1β; “INHIB” in the series on IL-6. The EFFECT entry was “INHIB” with IL-8; “INHIB” with TNF-α [4]; “INHIB” in the series on Tissue Factor; “NE” with PGE2; “NE” with LTB4; “NE” with PAF. The EFFECT entry with superoxide anion is on record as “INHIB”; in the series with monocytes, “INHIB”; in “MTS”, “TC”; in the series “LDH”, “TC”. Moreover, the EC50 was 12.6 µM in the series with GM-CSF (Homo sapiens, Monocyte); 7.5 µM in the series with IL-1β (Homo sapiens, Monocyte); 5.7 µM in the series with IL-6 (Homo sapiens, Monocyte); 2.9 µM in the series with IL-8 (Homo sapiens, Monocyte); 5.5 µM with TNF-α [4] (Homo sapiens, Monocyte); 4.3 µM in the series on Tissue Factor (Homo sapiens, Monocyte). Besides, the 50% effective concentration (EC50) in the series with superoxide anion (Homo sapiens, Monocyte) came to 34 µM; with monocytes (Homo sapiens, Monocyte), 47 µM. Moreover, the MNTC in the series “MTS” (mts assay, effect TC, read-out: Tolerated Concentration (EC50)) turned out to be 100 µM; in “LDH” (ldh assay, effect TC, read-out: Tolerated Concentration (EC50)), 100 µM.

Turning to `O=C1CCC(N2C(=O)c3ccccc3C2=O)C(=O)N1` (centres unmarked) [Thalidomide], the “activation of latent HIV-1” value in the series on latent HIV-1 is on record as “suppress the activation of latent HIV-1”. Also, the “agonist-induced TNF-α protein and mRNA production” value in the series with TNF-α [5] is “reduction”. For the same compound, the “inhibition of activation of virus in PBMC, patients” value with HIV-1 is given as 16 out of 17.

The EC50 is the concentration that produces a half-maximal response.
